Experimental data taken from article PMC5218480 (PLoS ONE, 2017).

Tested on: MV-4-11 cells
Test: Gene expression microarray analysis (Affymetrix PrimeView) and GSEA
Type: cell-based, human
Parameters: RFU PODN (11730768_x_at) / Fold change /veh PODN (11730768_x_at) / RFU LINC00158 (11744669_a_at) / Fold change /veh LINC00158 (11744669_a_at) / RFU DUSP10 (11751237_a_at) / Fold change /veh DUSP10 (11751237_a_at) / RFU ID3 (11757404_x_at) / Fold change /veh ID3 (11757404_x_at) / RFU PLEKHG5 (11737974_s_at) / Fold change /veh PLEKHG5 (11737974_s_at) / RFU LRRC4B (11730491_at) / Fold change /veh LRRC4B (11730491_at) / RFU GIMAP4 (11747438_a_at) / Fold change /veh GIMAP4 (11747438_a_at) / RFU KRT8 (11758183_x_at) / Fold change /veh KRT8 (11758183_x_at) / RFU CNN1 (11734310_a_at) / Fold change /veh CNN1 (11734310_a_at) / RFU VPS37D (11726825_at) / Fold change /veh VPS37D (11726825_at) / RFU C10orf10 (11716522_x_at) / Fold change /veh C10orf10 (11716522_x_at) / RFU KIR2DL2 /// KIR2DL4 /// KIR2DL5A /// KIR2DL5B /// KIR2DS1 /// KIR2DS2 /// KIR2DS3 /// KIR2DS4 /// KIR3DL3 /// KIR3DL3 /// KIR3DS1 (11738374_at) / Fold change /veh KIR2DL2 /// KIR2DL4 /// KIR2DL5A /// KIR2DL5B /// KIR2DS1 /// KIR2DS2 /// KIR2DS3 /// KIR2DS4 /// KIR3DL3 /// KIR3DL3 /// KIR3DS1 (11738374_at) / RFU C1QL1 (11718748_at) / Fold change /veh C1QL1 (11718748_at) / RFU TMPRSS4 (11747572_a_at) / Fold change /veh TMPRSS4 (11747572_a_at) / RFU HAMP (11756126_x_at) / Fold change /veh HAMP (11756126_x_at) / RFU RNFT2 (11725882_a_at) / Fold change /veh RNFT2 (11725882_a_at) / RFU NR4A2 (11747474_a_at) / Fold change /veh NR4A2 (11747474_a_at) / RFU ABCC12 (11746883_a_at) / Fold change /veh ABCC12 (11746883_a_at) / RFU TMEM136 (11760407_x_at) / Fold change /veh TMEM136 (11760407_x_at) / RFU CLDN22 /// WWC2 (11732394_at) / Fold change /veh CLDN22 /// WWC2 (11732394_at) / RFU HLA-DPB1 (11760878_x_at) / Fold change /veh HLA-DPB1 (11760878_x_at) / RFU SPINT1 (11716480_a_at) / Fold change /veh SPINT1 (11716480_a_at) / RFU GAP43 (11754022_s_at) / Fold change /veh GAP43 (11754022_s_at) / RFU A4GNT (11735810_at) / Fold change /veh A4GNT (11735810_at) / RFU PRB3 (11715151_x_at) / Fold change /veh PRB3 (11715151_x_at) / RFU TUBB4B (11761932_at) / Fold change /veh TUBB4B (11761932_at) / RFU CAPN14 (11732068_a_at) / Fold change /veh CAPN14 (11732068_a_at) / RFU TMCC2 (11721928_a_at) / Fold change /veh TMCC2 (11721928_a_at) / RFU IRGQ (11745062_a_at) / Fold change /veh IRGQ (11745062_a_at) / RFU FAM174B (11720279_a_at) / Fold change /veh FAM174B (11720279_a_at) / RFU TMPRSS4 (11748680_a_at) / Fold change /veh TMPRSS4 (11748680_a_at) / RFU FAM212B (11763350_a_at) / Fold change /veh FAM212B (11763350_a_at) / RFU PLEKHG5 (11743358_a_at) / Fold change /veh PLEKHG5 (11743358_a_at) / RFU ZSCAN30 (11745921_a_at) / Fold change /veh ZSCAN30 (11745921_a_at) / RFU CMKLR1 (11741424_a_at) / Fold change /veh CMKLR1 (11741424_a_at) / RFU LOC101060620 /// MAPK8IP1 (11723275_at) / Fold change /veh LOC101060620 /// MAPK8IP1 (11723275_at) / RFU SPTSSB (11747773_x_at) / Fold change /veh SPTSSB (11747773_x_at) / RFU PRSS12 (11739890_at) / Fold change /veh PRSS12 (11739890_at) / RFU BIN1 (11741810_x_at) / Fold change /veh BIN1 (11741810_x_at) / RFU WNT11 (11732464_a_at) / Fold change /veh WNT11 (11732464_a_at) / RFU C10orf10 (11716521_a_at) / Fold change /veh C10orf10 (11716521_a_at) / RFU C5orf56 (11738089_at) / Fold change /veh C5orf56 (11738089_at) / RFU CYB561 (11721691_x_at) / Fold change /veh CYB561 (11721691_x_at) / RFU ANKRD19P (11752326_a_at) / Fold change /veh ANKRD19P (11752326_a_at) / RFU OR2T12 /// OR2T33 /// OR2T8 (11738714_s_at) / Fold change /veh OR2T12 /// OR2T33 /// OR2T8 (11738714_s_at) / RFU VCAN (11748164_a_at) / Fold change /veh VCAN (11748164_a_at) / RFU JSRP1 (11732532_at) / Fold change /veh JSRP1 (11732532_at) / RFU KRTAP10-11 (11738290_x_at) / Fold change /veh KRTAP10-11 (11738290_x_at) / RFU MYO3A (11730013_a_at) / Fold change /veh MYO3A (11730013_a_at) / RFU EBF3 (11725865_a_at) / Fold change /veh EBF3 (11725865_a_at) / RFU CAMK2N1 (11719241_x_at) / Fold change /veh CAMK2N1 (11719241_x_at) / RFU C5orf56 (11738088_a_at) / Fold change /veh C5orf56 (11738088_a_at) / RFU OLFML3 (11715873_a_at) / Fold change /veh OLFML3 (11715873_a_at) / RFU LOC100653217 /// NTM (11731650_a_at) / Fold change /veh LOC100653217 /// NTM (11731650_a_at) / RFU MAPK11 (11762145_a_at) / Fold change /veh MAPK11 (11762145_a_at) / RFU FIZ1 (11724087_x_at) / Fold change /veh FIZ1 (11724087_x_at) / RFU OASL (11726364_x_at) / Fold change /veh OASL (11726364_x_at) / RFU SOX15 (11748057_x_at) / Fold change /veh SOX15 (11748057_x_at) / RFU CD79A (11719716_a_at) / Fold change /veh CD79A (11719716_a_at) / RFU HIST1H1D (11736915_at) / Fold change /veh HIST1H1D (11736915_at) / RFU CASKIN2 (11723855_a_at) / Fold change /veh CASKIN2 (11723855_a_at) / RFU LOC730098 (11760151_x_at) / Fold change /veh LOC730098 (11760151_x_at) / RFU OR4N2 (11742367_at) / Fold change /veh OR4N2 (11742367_at) / RFU PRRT2 (11749266_a_at) / Fold change /veh PRRT2 (11749266_a_at) / RFU SNX32 (11753110_a_at) / Fold change /veh SNX32 (11753110_a_at) / RFU CDHR5 (11726645_a_at) / Fold change /veh CDHR5 (11726645_a_at) / RFU RCAN1 (11760418_a_at) / Fold change /veh RCAN1 (11760418_a_at) / RFU FAM167A (11723789_a_at) / Fold change /veh FAM167A (11723789_a_at) / RFU FAM26E (11764081_at) / Fold change /veh FAM26E (11764081_at) / RFU ISYNA1 (11749810_s_at) / Fold change /veh ISYNA1 (11749810_s_at) / RFU ACY1 (11761880_at) / Fold change /veh ACY1 (11761880_at) / RFU 11764098_at / Fold change /veh 11764098_at / RFU SAMD14 (11745864_x_at) / Fold change /veh SAMD14 (11745864_x_at) / RFU NPB (11741838_a_at) / Fold change /veh NPB (11741838_a_at) / RFU TMPRSS6 (11731388_a_at) / Fold change /veh TMPRSS6 (11731388_a_at) / RFU KRTAP10-2 (11738614_at) / Fold change /veh KRTAP10-2 (11738614_at) / RFU ARHGAP8 /// PRR5-ARHGAP8 (11727945_x_at) / Fold change /veh ARHGAP8 /// PRR5-ARHGAP8 (11727945_x_at) / RFU KRTAP5-7 /// NADSYN1 (11734609_at) / Fold change /veh KRTAP5-7 /// NADSYN1 (11734609_at) / RFU RASL12 (11751679_a_at) / Fold change /veh RASL12 (11751679_a_at) / RFU CDKN2B (11736163_a_at) / Fold change /veh CDKN2B (11736163_a_at) / RFU PRF1 (11729649_at) / Fold change /veh PRF1 (11729649_at) / RFU, ZNF638 /// ZNF638-IT1 / Fold change vs veh, ZNF638 /// ZNF638-IT1 / RFU, PANK3 / Fold change vs veh, PANK3 / RFU, SH3YL1 / Fold change vs veh, SH3YL1 / RFU, ZEB2 / Fold change vs veh, ZEB2 / RFU, NRIP1 / Fold change vs veh, NRIP1 / RFU, PTTG1IP / Fold change vs veh, PTTG1IP / RFU, CAPN2 / Fold change vs veh, CAPN2 / RFU, MED14 / Fold change vs veh, MED14 / RFU, SNORA58 / Fold change vs veh, SNORA58 / RFU, C1orf63 / Fold change vs veh, C1orf63 / RFU, LRRFIP1 / Fold change vs veh, LRRFIP1 / RFU, NDUFAF7 / Fold change vs veh, NDUFAF7 / RFU, SLC12A2 / Fold change vs veh, SLC12A2 / RFU, IBTK / Fold change vs veh, IBTK / RFU, ESF1 / Fold change vs veh, ESF1 / Fold change vs veh, TMEM50B / RFU, TAOK1 / Fold change vs veh, TAOK1 / RFU, ACBD3 / Fold change vs veh, ACBD3 / RFU, TMA16 / Fold change vs veh, TMA16 / RFU, RWDD3 / Fold change vs veh, RWDD3 / RFU, BCAT1 / Fold change vs veh, BCAT1 / RFU, EDEM3 / Fold change vs veh, EDEM3 / RFU, TMEM33 / Fold change vs veh, TMEM33 / RFU, WDR75 / Fold change vs veh, WDR75 / RFU, AHCTF1 / Fold change vs veh, AHCTF1 / RFU, TFRC / Fold change vs veh, TFRC / RFU, ZDHHC17 / Fold change vs veh, ZDHHC17 / RFU, NOM1 / Fold change vs veh, NOM1 / RFU, ARL8B / Fold change vs veh, ARL8B / RFU, ZBTB11 / Fold change vs veh, ZBTB11 / RFU, TAMM41 / Fold change vs veh, TAMM41 / RFU, KIAA1704 /// LOC100996395 / Fold change vs veh, KIAA1704 /// LOC100996395 / RFU, ING1 / Fold change vs veh, ING1 / RFU, TRMT61B / Fold change vs veh, TRMT61B / RFU, FUBP3 / Fold change vs veh, FUBP3 / RFU, TP53 / Fold change vs veh, TP53 / RFU, TNKS2 / Fold change vs veh, TNKS2 / RFU, ZFP14 / Fold change vs veh, ZFP14 / RFU, ACTR2 / Fold change vs veh, ACTR2 / RFU, PPP3R1 / Fold change vs veh, PPP3R1 / RFU, PIK3R1 / Fold change vs veh, PIK3R1 / RFU, HNRNPA1 / Fold change vs veh, HNRNPA1 / RFU, RNF170 / Fold change vs veh, RNF170 / RFU, ZNF28 / Fold change vs veh, ZNF28 / RFU, RNGTT / Fold change vs veh, RNGTT / RFU, OGT / Fold change vs veh, OGT / RFU, BRD1 / Fold change vs veh, BRD1 / RFU, MARS / Fold change vs veh, MARS / RFU, ZNF655 / Fold change vs veh, ZNF655 / RFU, FAHD1 / Fold change vs veh, FAHD1 / RFU, BDP1 / Fold change vs veh, BDP1 / RFU, LRRCC1 / Fold change vs veh, LRRCC1 / RFU, ARID1A / Fold change vs veh, ARID1A / RFU, ZNF146 / Fold change vs veh, ZNF146 / RFU, ZNF330 / Fold change vs veh, ZNF330 / RFU, GPN3 / Fold change vs veh, GPN3 / RFU, C9orf123 / Fold change vs veh, C9orf123 / RFU, N4BP2L2 / Fold change vs veh, N4BP2L2 / RFU, ARFIP1 / Fold change vs veh, ARFIP1 / RFU, FAM179B / Fold change vs veh, FAM179B / RFU, BCL10 / Fold change vs veh, BCL10 / RFU, UHRF1BP1L / Fold change vs veh, UHRF1BP1L / RFU, BET1 / Fold change vs veh, BET1 / RFU, CNOT2 / Fold change vs veh, CNOT2 / RFU, ZNF268 / Fold change vs veh, ZNF268 / Fold change vs veh, ZNF507 / RFU, DGCR2 / Fold change vs veh, DGCR2 / RFU, WDSUB1 / Fold change vs veh, WDSUB1 / Fold change vs veh, HSP90B1 /// MIR3652 / RFU, ADSS / Fold change vs veh, ADSS / RFU, GK / Fold change vs veh, GK / RFU, ZNF148 / Fold change vs veh, ZNF148 / RFU, TAF9 / Fold change vs veh, TAF9 / RFU, SLC1A5 / Fold change vs veh, SLC1A5 / RFU, SLMO2 / Fold change vs veh, SLMO2 / RFU, ABCC4 / Fold change vs veh, ABCC4 / RFU, LOC101060439 /// RAP1B / Fold change vs veh, LOC101060439 /// RAP1B / RFU, RFX7 / Fold change vs veh, RFX7 / RFU, GTPBP10 / Fold change vs veh, GTPBP10 / RFU, CNEP1R1 / Fold change vs veh, CNEP1R1 / RFU, BIVM-ERCC5 /// ERCC5 / Fold change vs veh, BIVM-ERCC5 /// ERCC5 / RFU, ILF3 / Fold change vs veh, ILF3 / RFU 11762660_at / Fold change /veh 11762660_at / RFU VCAN (11757783_s_at) / Fold change /veh VCAN (11757783_s_at) / RFU DDX43 (11728927_at) / Fold change /veh DDX43 (11728927_at) / RFU KRT8 (11758188_x_at) / Fold change /veh KRT8 (11758188_x_at) / RFU NKD1 (11759106_at) / Fold change /veh NKD1 (11759106_at) / RFU SRD5A1 (11742802_a_at) / Fold change /veh SRD5A1 (11742802_a_at) / RFU TPSAB1 /// TPSB2 (11721975_s_at) / Fold change /veh TPSAB1 /// TPSB2 (11721975_s_at) / RFU GSTM3 (11746129_a_at) / Fold change /veh GSTM3 (11746129_a_at) / RFU IL23R (11737362_x_at) / Fold change /veh IL23R (11737362_x_at) / RFU TMEM51 (11727254_a_at) / Fold change /veh TMEM51 (11727254_a_at) / RFU PIWIL2 (11732686_x_at) / Fold change /veh PIWIL2 (11732686_x_at) / RFU ORM1 (11744905_x_at) / Fold change /veh ORM1 (11744905_x_at) / RFU CCDC152 (11743942_at) / Fold change /veh CCDC152 (11743942_at) / RFU ECM1 (11717891_a_at) / Fold change /veh ECM1 (11717891_a_at) / RFU IL23R (11748794_a_at) / Fold change /veh IL23R (11748794_a_at) / RFU TNFAIP8L3 (11732012_x_at) / Fold change /veh TNFAIP8L3 (11732012_x_at) / RFU MBOAT4 (11741988_at) / Fold change /veh MBOAT4 (11741988_at) / RFU 11764193_at / Fold change /veh 11764193_at / RFU TMEM53 (11763286_at) / Fold change /veh TMEM53 (11763286_at) / RFU MAGEB2 (11727129_at) / Fold change /veh MAGEB2 (11727129_at) / RFU TMEM200A (11744735_a_at) / Fold change /veh TMEM200A (11744735_a_at) / RFU CCDC152 (11751479_a_at) / Fold change /veh CCDC152 (11751479_a_at) / RFU FAM211A (11726209_a_at) / Fold change /veh FAM211A (11726209_a_at) / RFU RGS16 (11746705_a_at) / Fold change /veh RGS16 (11746705_a_at) / RFU VCAN (11755009_s_at) / Fold change /veh VCAN (11755009_s_at) / RFU RHOB (11743442_s_at) / Fold change /veh RHOB (11743442_s_at) / RFU RGS16 (11720943_a_at) / Fold change /veh RGS16 (11720943_a_at) / RFU RGS16 (11720944_at) / Fold change /veh RGS16 (11720944_at) / RFU, VPS4B / Fold change vs veh, VPS4B / RFU, CREB1 / Fold change vs veh, CREB1 / RFU, DNAJC13 / Fold change vs veh, DNAJC13 / RFU, GNAQ / Fold change vs veh, GNAQ / RFU, CDK5R1 / Fold change vs veh, CDK5R1 / RFU, ZRANB3 / Fold change vs veh, ZRANB3 / RFU, CUL4A / Fold change vs veh, CUL4A / RFU, CCNY / Fold change vs veh, CCNY / RFU, UFL1 / Fold change vs veh, UFL1 / RFU, COG3 / Fold change vs veh, COG3 / RFU, DIAPH2 / Fold change vs veh, DIAPH2 / RFU, SKA2 / Fold change vs veh, SKA2 / RFU, AFF3 / Fold change vs veh, AFF3 / RFU, LMF1 / Fold change vs veh, LMF1 / RFU, IPO11 / Fold change vs veh, IPO11 / RFU, DFFB / Fold change vs veh, DFFB / RFU, FOXP1 / Fold change vs veh, FOXP1 / RFU, CARD8 / Fold change vs veh, CARD8 / RFU, STRN3 / Fold change vs veh, STRN3 / RFU, ADK / Fold change vs veh, ADK / RFU, RASSF2 / Fold change vs veh, RASSF2 / RFU, WIPF1 / Fold change vs veh, WIPF1 / RFU, LARP1B / Fold change vs veh, LARP1B / RFU, RASA1 / Fold change vs veh, RASA1 / RFU, RB1 / Fold change vs veh, RB1 / RFU, PPFIA1 / Fold change vs veh, PPFIA1 / RFU, MAT2A / Fold change vs veh, MAT2A / RFU, CCT5 / Fold change vs veh, CCT5 / RFU, WDR92 / Fold change vs veh, WDR92 / RFU, CUX1 / Fold change vs veh, CUX1 / RFU, TTC7A / Fold change vs veh, TTC7A / RFU, TMEM135 / Fold change vs veh, TMEM135 / RFU, DEPTOR / Fold change vs veh, DEPTOR / RFU, CPM / Fold change vs veh, CPM / RFU, DNAJB6 / Fold change vs veh, DNAJB6 / RFU, CACNA2D3 / Fold change vs veh, CACNA2D3 / RFU, DTX4 / Fold change vs veh, DTX4 / RFU, TFCP2 / Fold change vs veh, TFCP2 / RFU, GMCL1 /// GMCL1P1 / Fold change vs veh, GMCL1 /// GMCL1P1 / RFU, AEBP2 / Fold change vs veh, AEBP2 / RFU, SNHG1 /// SNORD22 /// SNORD25 /// SNORD26 /// SNORD27 /// SNORD28 /// SNORD29 /// SNORD31 / Fold change vs veh, SNHG1 /// SNORD22 /// SNORD25 /// SNORD26 /// SNORD27 /// SNORD28 /// SNORD29 /// SNORD31 / Fold change (Aza/veh), C12orf56 (ProbeSet 11735607_a_at) / Fold change (ACY-1035/veh), C12orf56 (ProbeSet 11735607_a_at) / Fold change (Aza/veh), FGFR1OP (ProbeSet 11751329_s_at) / Fold change (ACY-1035/veh), FGFR1OP (ProbeSet 11751329_s_at) / Fold change (Aza/veh), VPS36 (ProbeSet 11739960_a_at) / Fold change (ACY-1035/veh), VPS36 (ProbeSet 11739960_a_at) / RFU SYPL1 (11715823_x_at) / Fold change /veh SYPL1 (11715823_x_at) / RFU IGFBP7 (11715501_s_at) / Fold change /veh IGFBP7 (11715501_s_at) / RFU REEP3 (11722064_at) / Fold change /veh REEP3 (11722064_at) / RFU IGLL1 (11728026_x_at) / Fold change /veh IGLL1 (11728026_x_at): dose or concentration left out as unconfirmed
Settings: ProbeSet 11720154_at; LIST B

Nc1ccc(-c2cccs2)cc1NC(=O)c1ccc2c(c1)cc(C1CC1)n2CCN1CCOCC1 [ACY-1035]
RFU, NRIP1: 473.81 RFU
